Patent US20170253601A1, “Substituted Pyrrolidine Compounds” (EPIZYME, INC., priority 2014, published 2017)
pIC50: −log10 of the molar value.

target: T1, human SMYD3 (Homo sapiens, UniProt Q9H7B4); assay: SMYD3 Biochemical Assay (3H-SAM, MEKK2 protein substrate, SPA); conditions: Table 1; average of n = 1 to n = 50; read-out: SMYD3 Biochem IC50
T1 construct: Expressed full-length human His-tagged SMYD3 protein was purified from cell paste; His6 (cleaved yes); TEV and SUMO cleavage sites (cleaved yes); made in house; host or cells: E. coli BL21 codonplus RIL
T1 sequence (Q9H7B4 1-428): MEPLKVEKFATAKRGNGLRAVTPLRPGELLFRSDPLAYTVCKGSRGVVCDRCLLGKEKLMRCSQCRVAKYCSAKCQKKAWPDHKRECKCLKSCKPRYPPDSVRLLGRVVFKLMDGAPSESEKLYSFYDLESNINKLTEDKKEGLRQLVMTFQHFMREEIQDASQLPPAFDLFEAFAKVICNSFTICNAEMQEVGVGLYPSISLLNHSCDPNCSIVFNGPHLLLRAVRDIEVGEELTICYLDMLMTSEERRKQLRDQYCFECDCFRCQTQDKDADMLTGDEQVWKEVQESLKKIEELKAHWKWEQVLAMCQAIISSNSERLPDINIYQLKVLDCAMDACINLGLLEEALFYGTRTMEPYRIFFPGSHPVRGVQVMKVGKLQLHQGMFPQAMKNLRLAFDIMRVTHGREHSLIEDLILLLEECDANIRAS
Excerpt: S-adenosylmethionine (SAM), S-adenosylhomocysteine (SAH), Tris, Tween20, dimethylsulfoxide (DMSO), bovine skin gelatin (BSG), and Tris(2-carboxyethyl)phosphine hydrochloride solution (TCEP) were purchased from Sigma-Aldrich at the highest level of purity possible. ^3H-SAM was purchase from American Radiolabeled Chemicals with a specific activity of 80 Ci/mmol. 384-well opaque white OptiPlates and SPA beads (Perkin Elmer, catalog # RPNQ0013) were purchased from PerkinElmer.
N-terminally GST-tagged MEKK2 (MAP3K2) protein corresponding to reference sequence AAF63496.3 was purchased from Life Technologies (catalog # PV4010). This protein was expressed in High Five insect cells and purified to >85% purity. Protein identity was confirmed by MS/MS analysis after proteolytic digestion. The protein sequence used was:
Full-length human SMYD3 isoform 1 (BAB86333) was inserted into a modified pET21b plasmid containing a His6 tag and TEV and SUMO cleavage sites. Because two common variants of SMYD3 exist in the population, site directed mutagenesis was subsequently performed to change amino acid 13 from an asparagine to a lysine, resulting in plasmid pEPZ533. A lysine at position 13 conforms to the more commonly occurring sequence (NP_001161212).
E. coli (BL21 codonplus RIL strain, Stratagene) were transformed with plasmid pEPZ553 by mixing competent cells and plasmid DNA and incubating on ice for 30 minutes followed by heat shock at 42° C. for 1 minute and cooling on ice for 2 minutes. Transformed cells were grown and selected on LB agar with 100 μg/mL ampicillin and 17 μg/mL chloramphenicol at 37° C. overnight. A single clone was used to inoculate 200 mL of LB medium with 100 μg/mL ampicillin and 17 μg/mL chloramphenicol and incubated at 37° C. on an orbital shaker at 180 rpm. Once in log growth, the culture was diluted 1:100 into 2 L of LB medium and grown until OD600 was about 0.3 after which the culture was incubated at 15° C. and 160 rpm. Once OD600 reached about 0.4, IPTG was added to a final concentration of 0.1 mM and the cells were grown overnight at 15° C. and 160 rpm. Cells were harvested by centrifugation at 8000 rpm, for 4 minutes at 4° C. and stored at −80° C. for purification.
Expressed full-length human His-tagged SMYD3 protein was purified from cell paste by Nickel affinity chromatography after equilibration of the resin with Buffer A (25 mM Tris, 200 mM NaCl, 5% glycerol, 5 mM β-mercaptoethanol, pH7.8). The column was washed with Buffer B (Buffer A plus 20 mM imidazole) and His-tagged SMYD3 was eluted with Buffer C (Buffer A plus 300 mM imidazole). The His tag, TEV and SUMO cleavage sites were removed generating native SMYD3 by addition of ULP1 protein at a ratio of 1:200 (ULP1:SMYD3). Imidazole was removed by dialysis overnight in Buffer A. The dialyzed solution was applied to a second Nickel column and the native SMYD3 protein was collected from the column flow-through. The flow-through was dialyzed in Buffer D (25 mM Tris, 5% glycerol, 5 mM β-mercaptoethanol, 50 mM NaCl, pH7.8) and ULP1 was removed using a Q sepharose fast flow column. SMYD3 was eluted in Buffer A and further purified using an S200 size-exclusion column equilibrated with Buffer A. SMYD3 was concentrated to 2 mg/mL with a final purity of 89%.
The assays were all performed in a buffer consisting of 25 mM Tris-Cl pH 8.0, 1 mM TCEP, 0.005% BSG, and 0.005% Tween 20, prepared on the day of use. Compounds in 100% DMSO (1 ul) were spotted into a 384-well white opaque OptiPlate using a Bravo automated liquid handling platform outfitted with a 384-channel head (Agilent Technologies). DMSO (1 ul) was added to Columns 11, 12, 23, 24, rows A-H for the maximum signal control and 1 ul of SAH, a known product and inhibitor of SMYD3, was added to columns 11, 12, 23, 24, rows I-P for the minimum signal control. A cocktail (40 ul) containing the SMYD3 enzyme was added by Multidrop Combi (Thermo-Fisher). […]

| pIC50 | SMILES |
| --- | --- |
| < 3.70 | O=C(NC1CCN(Cc2ccccc2)C1=O)c1cc(C2CC2)on1 (stereo not shown) [compound 27, N-(1-benzyl-2-oxopyrrolidin-3-yl)-5-cyclopropylisoxazole-3-carboxamide] |
| 4.27 | CC1CC(NC(=O)c2cc(C3CC3)on2)CN1Cc1ccccc1 (stereo not shown) [compound 21, N-(1-benzyl-5-methylpyrrolidin-3-yl)-5-cyclopropyl-isoxazole-3-carboxamide] |
| 4.25 | CN1C[C@H](NC(=O)c2cc(C3CC3)on2)[C@H](c2ccccc2)C1 (racemic) [compound 17, (±)-cis-5-cyclopropyl-N-((1-methyl-4-phenylpyrrolidin-3-yl)isoxazole-3-carboxamide] |
| 4.29 | CN1CCC(NC(=O)c2cc(C3CC3)on2)C1c1ccc(Cl)c(F)c1 (stereo not shown) [compound 7, N-(2-(4-chloro-3-fluorophenyl)-1-methylpyrrolidin-3-yl)-5-cyclo-propylisoxazole-3-carboxamide] |
| < 3.70 | C[C@H]1C[C@H](NC(=O)c2cc(C3CC3)on2)C(=O)N1c1cnn(C)c1 (racemic) [compound 20, (±)-trans 5-cyclopropyl-N-(5-methyl-1-(1-methyl-1H-pyrazol-4-yl)-2-oxopyrrolidin-3-yl)isoxazole-3-carboxamide] |
| < 4.00 | CC(=O)Nc1ccc(S(=O)(=O)N2CC[C@@H](NC(=O)c3cc(C4CC4)on3)C2)cc1 [compound 2, (R)-N-(1-((4-acetamido-phenyl)sulfonyl)pyrrolidin-3-yl)-5-cyclopropyl-isoxazole-3-carboxamide] |
| < 5.00 | NCCCC(=O)N1CC[C@@H](NC(=O)c2cc(C3CC3)on2)C1 [compound 30, (R)-N-(1-(4-amino-butanoyl)pyrrolidin-3-yl)-5-cyclopropyl-isoxazole-3-carboxamide] |
| < 3.70 | C[C@@H]1C[C@H](NC(=O)c2cc(C3CC3)on2)C(=O)N1c1cnn(C)c1 (racemic) [compound 19, (±)-cis-5-cyclopropyl-N-(5-methyl-1-(1-methyl-1H-pyrazol-4-yl)-2-oxopyrrolidin-3-yl)isoxazole-3-carboxamide] |
| 4.10 | O=C(N[C@H]1CCNC1)c1cc(C2CC2)on1 [compound 3, (S)-5-cyclopropyl-N-(pyrrolidin-3-yl)isoxazole-3-carboxamide] |
| 4.30 | CN1C[C@H](NC(=O)c2cc(C3CC3)on2)[C@@H](c2ccccc2)C1 (racemic) [compound 18, (±)-trans-5-cyclopropyl-N-(1-methyl-4-phenylpyrrolidin-3-yl)isoxazole-3-carboxamide] |
| 4.26 | CN1CCC(NC(=O)c2cc(C3CC3)on2)C1c1ccccc1 (stereo not shown) [compound 5, 5-cyclopropyl-N-(1-methyl-2-phenyl-pyrrolidin-3-yl)isoxazole-3-carboxamide] |
| 4.08 | O=C(N[C@@H]1CCNC1)c1cc(C2CC2)on1 [compound 4, (R)-5-cyclopropyl-N-(pyrrolidin-3-yl)isoxazole-3-carboxamide] |
| 4.11 | CC1CC(NC(=O)c2cc(C3CC3)on2)C(=O)N1c1ccccc1 (stereo not shown) [compound 11, 5-cyclopropyl-N-(5-methyl-2-oxo-1-phenylpyrrolidin-3-yl)isoxazole-3-carboxamide] |
| 3.80 | Cn1ccc(N2CCC(NC(=O)c3cc(C4CC4)on3)C2=O)n1 (stereo not shown) [compound 15, 5-cyclopropyl-N-(1-(1-methyl-1H-pyrazol-3-yl)-2-oxopyrrolidin-3-yl)isoxazole-3-carboxamide] |
| 4.91 | O=C(NC1CCN(C2CC2)C1c1ccc(F)c(F)c1)c1cc(C2CC2)on1 (stereo not shown) [compound 8, 5-cyclopropyl-N-(1-cyclopropyl-2-(3,4-difluoro-phenyl)pyrrolidin-3-yl)isoxazole-3-carboxamide] |
| 4.17 | CN1CCC(NC(=O)c2cc(C3CC3)on2)C1c1ccc(F)c(F)c1 (stereo not shown) [compound 9, 5-cyclopropyl-N-(2-(3,4-difluorophenyl)-1-methylpyrrolidin-3-yl)isoxazole-3-carboxamide] |
| 4.05 | O=C(NC1CC(=O)N(Cc2ccccc2)C1)c1cc(C2CC2)on1 (stereo not shown) [compound 26, N-(1-benzyl-5-oxopyrrolidin-3-yl)-5-cyclopropylisoxazole-3-carboxamide] |
| 4.29 | CN1CCC(NC(=O)c2cc(C3CC3)on2)C1c1ccc(F)cc1 (stereo not shown) [compound 13, 5-cyclopropyl-N-(2-(4-fluorophenyl)-1-methylpyrrolidin-3-yl)isoxazole-3-carboxamide] |
| 5.24 | NCCCS(=O)(=O)N1CC[C@@H](NC(=O)c2cc(C3CC3)on2)C1 [compound 34, (R)-N-(1-((3-amino-propyl)sulfonyl)pyrrolidin-3-yl)-5-cyclopropyl-isoxazole-3-carboxamide] |
| 4.23 | CC(C)N1CCC(NC(=O)c2cc(C3CC3)on2)C1c1ccc(F)c(F)c1 (stereo not shown) [compound 12, 5-cyclopropyl-N-(2-(3,4-difluorophenyl)-1-isopropylpyrrolidin-3-yl)isoxazole-3-carboxamide] |
| 4.27 | CC1CC(NC(=O)c2cc(C3CC3)on2)CN1c1ccccc1 (stereo not shown) [compound 10, 5-cyclopropyl-N-(5-methyl-1-phenylpyrrolidin-3-yl)isoxazole-3-carboxamide] |
| 4.01 | O=C(NC1CC(=O)N(c2ccccc2)C1)c1cc(C2CC2)on1 (stereo not shown) [compound 25, 5-cyclopropyl-N-(5-oxo-1-phenylpyrrolidin-3-yl)isoxazole-3-carboxamide] |
| 4.23 | CN1C(=O)CC(NC(=O)c2cc(C3CC3)on2)C1c1ccc(F)cc1 (stereo not shown) [compound 14, 5-cyclopropyl-N-(2-(4-fluorophenyl)-1-methyl-5-oxopyrrolidin-3-yl)isoxazole-3-carboxamide] |
| 4.03 | O=C(NC1CCN(c2ccccc2)C1=O)c1cc(C2CC2)on1 (stereo not shown) [compound 28, 5-cyclopropyl-N-(2-oxo-1-phenyl-pyrrolidin-3-yl)isoxazole-3-carboxamide] |
| 4.42 | CC(c1ccccc1)N1CCC(NC(=O)c2cc(C3CC3)on2)C1 (stereo not shown) [compound 24, 5-cyclopropyl-N-(1-(1-phenylethyl)pyrrolidin-3-yl)isoxazole-3-carboxamide] |
| 4.31 | CC1CN(C2CC2)CC1NC(=O)c1cc(C2CC2)on1 (stereo not shown) [compound 23, 5-cyclopropyl-N-(1-cyclopropyl-4-methylpyrrolidin-3-yl)isoxazole-3-carboxamide] |
| 4.11 | COc1cccc(C2C(NC(=O)c3cc(C4CC4)on3)CCN2C2CC2)c1 (stereo not shown) [compound 16, 5-cyclopropyl-N-(1-cyclopropyl-2-(3-methoxy-phenyl)pyrrolidin-3-yl)isoxazole-3-carboxamide] |
| 5.35 | NCCCS(=O)(=O)N1CC[C@H](NC(=O)c2cc(C3CC3)on2)C1 [compound 35, (S)-N-(1-((3-amino-propyl)sulfonyl)pyrrolidin-3-yl)-5-cyclopropyl-isoxazole-3-carboxamide] |
